In patent US20220073536A1 (Rigel Pharmaceuticals, Inc., priority 2003, published 2022) one finds IC50 data, which are given here for 16 substances.

Read-outs that look alike come from different tables or passages of the source.

The assay relates to cultured human mast cells (CHMC). As to the kind of experiment: CHMC low cell density IgE activation: tryptase assay. It is filed as cell-based. The conditions noted are these: IgE activation. An outline of the steps: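 CHMC at 1000–1500 cells/well were preincubated 1 hr at 37° C., stimulated with anti-IgE for 30 minutes at 37° C., then pelleted. Supernatant tryptase was measured with a fluorogenic substrate after 30 min at room temperature, against un-stimulated control wells.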

Where [1] appears, read: low cell density CHMC, tryptase release, 8 pt, read-out: LD Tryptase, CHMC, IgE, 8 pt.
[2] abbreviates: low cell density CHMC, tryptase, 3 pt, read-out: LD Tryptase, CHMC, IgE, 3 pt.
The mark [3] stands for this setting: low cell density CHMC, tryptase, 8 pt, read-out: LD Tryptase, CHMC, IgE, 8 pt.

With “(R)-N2- (3-Chloro-4-methoxyphenyl)-5-fluoro-N4- (2-methyl-3-oxo-2H,4H-benz[1,4]oxazin-6-yl)-2,4-pyrimidinediamine (1R)-(−)-Camphorsulfonic Acid Salt [Compound 212]”, the IC50 reads like this: (low cell density CHMC, tryptase release, 3 pt, read-out: LD Tryptase, CHMC, IgE, 3 pt) < 10 µM; under setting [1], < 10 µM.

For the substance “(R)-N2- (3-Chloro-4-methoxyphenyl)-5-fluoro-N4- (2-methyl-3-oxo-2H,4H-benz[1,4]oxazin-6-yl)-2,4-pyrimidinediamine (1S)-(+)-Camphorsulfonic Acid Salt [Compound 209]”, the IC50 under setting [1] was < 10 µM.

Take “(R)-N2-[3- (N-tert-Butoxycarbonylamino)methylenephenyl]-5-fluoro-N4- (2-methyl-3-oxo-2H,4H-benz[1,4]oxazin-6-yl) [Compound 1277]”: the IC50 runs as follows: under setting [2], < 10 µM; under setting [3], < 10 µM.

For the substance “(R,S)-N2- (3,5-Dimethylphenyl)-5-fluoro-N4-(tetrahydrofurano[2,3]-2H-benz[1,4]oxazin-6-yl)-2,4-pyrimidinediamine [Compound 252]”, the IC50 under setting [1] is < 10 µM.

“(S)-5-Fluoro-[1- (2-hydroxymethyl)-2-trifluoromethylbenzimidazol-5-yl]-N4- (2-methyl-3-oxo-2H,4H-benz[1,4]oxazin-6-yl)-2,4-pyrimidinediamine [Compound 923]”: where the note is “low cell density, 8 pt, read-out: LD Tryptase, CHMC, IgE, 8 pt”, the IC50 is < 10 µM.

Regarding “(S)-N2-[3- (N-tert-Butoxycarbonylamino)methylenephenyl]-5-fluoro-N4- (2-methyl-3-oxo-2H,4H-benz[1,4]oxazin-6-yl)-2,4-pyrimidinediamine [Compound 1276]”, the IC50 by setting is: under setting [2], < 10 µM; under setting [3], < 10 µM.

As for “N2- (2,2-Dimethyl-3-oxo-4H-benz[1,4]oxazin-6-yl)-5-fluoro-N4-(4-[N-[methoxycarbonylmethylene]aminocarbonyl]phenyl)-2,4-pyrimidinediamine [Compound 1331]”, the IC50 under setting [2] was < 10 µM and the IC50 under setting [3] is < 10 µM.

As for “N2- (2-Aminocarbonylphenyl)-N4- (2,2-dimethyl-3-oxo-4H-5-pyrid[1,4]oxazin-6-yl)-5-fluoro-2,4-pyrimidinediamine [Compound 1316]”, the IC50 under setting [2] is < 10 µM and the IC50 under setting [3] is > 10 µM.

Turning to “N2- (3,5-Dichloro-4-hydroxyphenyl)-5-fluoro-N4- (4-[N-[methoxycarbonylmethylene]aminocarbonyl]phenyl)-2,4-pyrimidinediamine [Compound 1329]”, under setting [3], the IC50 is < 10 µM.

With “N2- (3-Chloro-4-hydroxy-5-methylphenyl)-N4-[3,4-(difluoromethylenedioxy)phenyl]-5-fluoro-2,4-pyrimidinediamine [Compound 567]”, for the setting “low cell density CHMC, tryptase release, 8 point, read-out: LD Tryptase, CHMC, IgE, 8 pt”, the IC50 was < 10 µM.

For the substance “N2- (4-Aminocarbonylphenyl)-5-fluoro-N4- (4-[N-[methoxycarbonylmethylene]aminocarbonyl]phenyl)-2,4-pyrimidinediamine [Compound 1333]”, the IC50 was > 10 µM under setting [2] and > 10 µM under setting [3].

As for “N2- (4-Aminocarbonylphenyl)-N4- (2,2-dimethyl-3-oxo-4H-5-pyrid[1,4]oxazin-6-yl)-5-fluoro-2,4-pyrimidinediamine [Compound 1315]”, under setting [2], the IC50 is < 10 µM.

With “N2-[3,5-Bis (hydroxymethylene)phenyl]-N4- (3,4-dichlorophenyl)-5-fluoro-2,4-pyrimidinediamine [Compound 346]”, the IC50 under setting [3] is < 10 µM.

With “N2-[3,5-Bis (hydroxymethylene)phenyl]-N4- (3,4-ethylenedioxyphenyl)-5-fluoro-2,4-pyrimidinediamine [Compound 342]”, the IC50 under setting [3] was < 10 µM.

In the case of “N2-[3,5-Bis (hydroxymethylene)phenyl]-N4- (3-chloro-4-methoxyphenyl)-5-fluoro-2,4-pyrimidinediamine [Compound 345]”, under setting [3], the IC50 is < 10 µM.

Consider “N4- (2,2-Dimethyl-3-oxo-4H-5-pyrid[1,4]oxazin-6-yl)-5-fluoro-N2- (3-methoxycarbonylppyrid-2yl)-2,4-pyrimidinediamine [Compound 1314]”, for which, under setting [2], the IC50 is < 10 µM.
